Measured values taken from patent US6790644B2, “1,3-dicarbonyl-dioxygenase—a new c-c-bond cleaving enzyme” (Biocatalytics, Inc., priority 2001, dated 2004).
Where two headings read alike, the source gives them in different places.

How the values were obtained:
CCCCC(=O)CC(C)=O = assay: purified protein, by the assay type; details: other: apparent; photometric, oxygen-saturated buffer, substrate 10-200 μM; pH 7.5; 25.0 °C
CCCCCC(=O)CC(C)=O = assay: purified protein, by the assay type; details: other: apparent; photometric, oxygen-saturated buffer, substrate 10-200 μM; pH 7.5; 25.0 °C
CC(=O)C1CCCCC1=O = assay: purified protein, by the assay type; details: other: apparent; photometric, oxygen-saturated buffer, substrate 10-200 μM; pH 7.5; 25.0 °C
CC(=O)C1CCCC1=O = assay: purified protein, by the assay type; details: other: apparent; photometric, oxygen-saturated buffer, substrate 10-200 μM; pH 7.5; 25.0 °C
CC(=O)C(C)C(C)=O = assay: purified protein, by the assay type; details: other: apparent; photometric, oxygen-saturated buffer, substrate 10-200 μM; pH 7.5; 25.0 °C
CC(=O)CC(=O)C(C)(C)C = assay: purified protein, by the assay type; details: other: apparent; photometric, oxygen-saturated buffer, substrate 10-200 μM; pH 7.5; 25.0 °C
tRNA = details: cited from earlier work
Salmonella typhimurium = details: cited from earlier work
[1] = target: wild-type 1,3-dicarbonyl-dioxygenase (Acinetobacter johnsonii, UniProt Q8GNT2); assay: Relative activity of wild-type enzyme at non-limiting substrate concentrations; assay type: biochemical; details: relative activity, acetylacetone = 1.00, non-limiting substrate concentrations
Protocol: (§1) The reaction rates were determined by using the microcomputer regression program provided with the spectrophotometer (Winspec) based on the first ten absorbance measurements made at 5-s intervals.
(§2) Oxygen consumption during the enzyme reaction was measured with an oxygen-electrode-cell (Digital Oxygen System Model 10, Rank Brothers Ltd., Cambridge, England) as described previously (Beechey, R. B. and Ribbons, D. W. (1971). ‘Methods in Microbiology’.V. 6B. Edited by J. R. Norris and D. W. Ribbons. Academic press, London. ‘Oxygen electrode measurements’ (Chapter II) pp. 29-52.). The reaction mixture contained air-saturated KH2PO4-buffer, 50 mM, pH 7.5 at 25° C. (thermostat). The oxygen-electrode was calibrated by the sodium-sulfite-method. Varying concentrations of substrate (0.01-0.3 mM) were added and the resulting decrease of oxygen was determined.

[2] = target: T1, 1,3-dicarbonyl-dioxygenase (Acinetobacter johnsonii, UniProt Q8GNT2); assay: Substrate spectrum / apparent kinetic constants of purified 1,3-dicarbonyl-dioxygenase (UV assay and oxygen electrode)
Protocol: as §1
Substrates were dissolved at a concentration of 0.001-1 mM in KH2PO4-buffer, 50 mM, pH 7.5 using a 10 mM stock solution. Duplicate absorption-measurements of 20 different dilutions were performed at 25° C. The molar absorption coefficients were calculated by linear regression.
as §2
Assuming the Michaelis-Menten-equation, Vmax and Ks values were calculated by non-linear curve-fit by the program microcal-origin. KO2 was estimated by polarographic methods, adding non limiting amounts of substrate (0.5-1 mM) and graphically determining the oxygen concentration at the point of half of the maximum activity. Ks-values were similarly confirmed by polarographic methods, by stepwise addition of substrate to a final concentration of 20-150 μM.

[3] = cited from earlier work
[4] = target: T1, 1,3-dicarbonyl-dioxygenase; assay: Products of various substrates determined by HPLC (cleavage stoichiometry, partially purified enzyme); assay type: biochemical; details: substrate 4 mM, 25° C., one hour
From the text: The products of the enzyme reaction were identified directly from the reaction mixture by in situ ^1H-NMR-spectroscopy (Pokorny, D., L. Brecker, M. Pogorevc, H. Griengl, W. Steiner, T. Kappe, and D. W. Ribbons. 1999. Proton-Nuclear Magnetic Resonance Analyses of the Substrate Specificity of a β-Ketolase from Pseudomonas putida, Acetopyruvate Hydrolase. J. Bacteriol. 181: 5051-5059.). Therefore a 200 MHz narrow bore magnet (Varian Gemini™ 2000, Varian, Inc., Palo Alto, Calif.) and a 5 mm broadband probe head were used. The NMR tube was rotated at 20 rps. For a lock a D2O vortex capillary was added to avoid ^1H/D exchange reactions. The overwhelming water-signal was suppressed with a presaturation method (Guéron, M., P. Plateau and M. Decorps. 1991. Solvent signal suppression in NMR. Prog. NMR Spectrosc. 23: 135-209. Hore, J. P. 1989. Solvent suppression. p. 64. In N. J. Oppenheimer and J. T. James (eds.), Methods Enzymol. 176. Academic Press, Inc., San Diego.). The following parameters were adjusted for a ^1H-frequency of 200 MHz: presaturation-duration of 1.0 s, ^1H-pulse-angle of 90, an acquisition-time of 2.0 s and a relaxation delay of 1.5 s. 64 Scans were accumulated and after a zero filling to 32 k datapoints the free induction decay was Fourier transformed. The water signal (4.70 ppm) was used as a reference. For standard reaction analytics HPLC-measurements were performed (Hewlett-Packard, column: Aminex-HPX-87H, UV- and RI-detector, eluent Sulfuric acid 0.005 M).
The cleavage-stoichiometry of several non-symmetrical substrates was also investigated, in order to be able to determine the regiospecificity of the enzyme. This was done by conversion of the respective substrate with partially purified enzyme. Methylglyoxal and acetate formed were measured by HPLC. Remaining substrate was calculated.

[5] = target: T1, 1,3-dicarbonyl-dioxygenase; assay: Reaction analysis with purified enzyme by in situ 1H-NMR / HPLC; assay type: biochemical; details: no cofactor added
[6] = target: T2, recombinant 1,3-dicarbonyl-dioxygenase (expressed in E.coli) (Acinetobacter johnsonii, UniProt Q8GNT2); assay: Relative activity of recombinant protein at non-limiting substrate concentrations; assay type: biochemical; details: relative activity, acetylacetone = 1.00, non-limiting substrate concentrations
T2 construct: made in house; host or cells: E. coli XL1 Blue, plasmid pMS470 (tac promoter, NdeI/HindIII)
Protocol: Expression constructs were expressed in E.coli XL1 Blue (Stratagene, La Jolla, Calif.), which was grown to an OD of 1 at 30° C. on rotatory shakers in erlenmeyer flasks, then induced with IPTG (0.3 mM) and incubated for another 5 hours.
as §1, §2

[7] = target: T1, 1,3-dicarbonyl-dioxygenase; assay: Determination of enzyme-activity and stability versus pH and additives; assay type: physicochemical
Protocol: Activity measurements were performed with the oxygen-electrode, with KH2PO4-buffers adjusted to various pH-values [5.0-9.0]. For stability measurements, the enzyme was diluted ten-fold and incubated at various pH-values [5.0-9.0]. The activity was measured periodically with the UV-activity-assay.

[8] = repeated exposure, peroral and inhalation routes
[9] = glycerol 10%, glucose 12.5%, ascorbate 1 mM, bovine serum albumin 1-20 mg/mL, dithiothreitol 1 mM, mercaptoethanol 1 mM

Molecule: 1,3-dicarbonyl-dioxygenase (Acinetobacter johnsonii)
- Km (CCCCC(=O)CC(C)=O): 5.9 ± 1.5 µM
- Km (CCCCCC(=O)CC(C)=O): 7.5 ± 2.1 µM
- Km (CC(=O)C1CCCCC1=O): 18.1 ± 4.2 µM
- Km (CC(=O)C1CCCC1=O): 21.0 ± 6.1 µM
- Km (CC(=O)C(C)C(C)=O): 23.1 ± 6.8 µM
- Km (CC(=O)CC(=O)C(C)(C)C): 14.2 ± 3.7 µM

Molecule: CC(=O)CC(=O)C(F)(F)F [1,1,1-trifluoroacetylacetone]
- inhibition of binding to tRNA of aflatoxin B1 (tRNA): inhibited

Molecule: O=C1CC(=O)c2ccccc21 [1,3-indandione]
- inhibition of binding to tRNA of aflatoxin B1 (tRNA): inhibited
- inhibition of mutagenicity of aflatoxin B1 (Salmonella typhimurium): inhibit
- inhibition of mutagenicity of benzo[a]pyrene (Salmonella typhimurium): inhibit
- inhibition of mutagenicity of methylnitrosourea (Salmonella typhimurium; concomitant exposure to inhibitor and mutagen necessary): inhibit

Molecule: CC(=O)CC(C)=O [Acetylacetone, pentane-2,4-dione]
- Vmax wild-type [1]: 1.00
- pH up to which the substrate is accepted by the enzyme ([2]; activity-pH-relationship studies): ≤ 9
- Vmaxrel. ([2]; apparent, relative to acetylacetone = 1.00, purified wild-type enzyme): 1.00
- KO2 ([2]; apparent, polarographic, estimated from rate of oxygen depletion, substrate 0.5-1 mM): 38 ± 6 µM
- fetotoxicity ([3]; in vivo): fetotoxicity was observed
- immune system toxicity [3, 8]: possible immune system toxicity
- neurotoxicity [3, 8]: central neurotoxicity
- Substrate % (remaining) ([4]; remaining substrate calculated): 0%
- Acetate % ([4]; oxygen saturated buffer): 50%
- Methylglyoxal % ([4]; oxygen saturated buffer): 50%
- acetate found per mmol of acetyl-acetone cleaved [5]: one
- Vmax clone [6]: 1.00

Molecule: CC(=O)CC(=O)c1ccccc1 [benzoylacetone]
- inhibition of binding to tRNA of benzo[a]pyrene (tRNA): inhibited
- inhibition of mutagenicity of 2-naphthohydroxamic acid (Salmonella typhimurium): inhibit

Molecule: O=C(CC(=O)c1ccccc1)c1ccccc1 [dibenzoylmethane]
- inhibition of binding to tRNA of aflatoxin B1 (tRNA): inhibited
- inhibition of binding to tRNA of benzo[a]pyrene (tRNA): inhibited
- inhibition of mutagenicity of 2-naphthohydroxamic acid (Salmonella typhimurium): inhibit
- inhibition of mutagenicity of aflatoxin B1 (Salmonella typhimurium): inhibit
- inhibition of mutagenicity of benzo[a]pyrene (Salmonella typhimurium): inhibit
- inhibition of mutagenicity of methylnitrosourea (Salmonella typhimurium): inhibit

Molecule: OCC(O)CO [glycerol]
- effect of potential stabilizing agent on enzyme stability [7, 9]: did not enhance stability

Molecule: OCCS [mercaptoethanol]
- effect of potential stabilizing agent on enzyme stability [7]: did not enhance stability

Molecule: bovine serum albumin: potential stabilizing agent added to the enzyme
- effect of potential stabilizing agent on enzyme stability [7, 9]: did not enhance stability

B1: 1,3-dicarbonyl-dioxygenase: Purified A. johnsonii enzyme, about 67 kDa, subunits of about 16.6 kDa (SEQ ID NO: 2), cleaves 1,3-dicarbonyl compounds with molecular oxygen (protein)
chain: MDYCNKKHTAEEYVKISDNNYVPFPEAFSDGGITWQLLHSSPETSSWTAIFNCPAGSSFASHIHAGPGEYFLTKGKMEVRGGEQEGGSTAYAPSYGFESSGALHGKTFFPVESQFYMTFLGPLNFIDDNGKVIASIGWAEAQGAWLATKNEAA
- apparent Vmax of the purified enzyme ([2]; acetylacetone as substrate): 10.5 U/mgEnzyme
- halftime-stability ([7]; 0.05 mg/mL protein concentration, 4° C.): 3550 min
- pH of maximum stability ([7]; enzyme incubated at pH 5.0-9.0): 7.5-8.0
- pH of maximum activity ([7]; oxygen electrode, KH2PO4-buffers pH 5.0-9.0): 6.0-7.5
